One compound from US20070204353A1, “Transgenic animals and methods of monitoring hedgehog responding cells” (priority 2005, published 2007) can be followed below.

The test has as its system fast-dividing cells in the SVZ and SGZ. As to the kind of experiment: AraC infusion (mini-osmotic pump, one week) into brain of tamoxifen-marked Gli1-CreERT2;R26R mice; marker analysis of fate-mapped lacZ+ cells. Conditions: for lacZ+;GFAP+/total lacZ+ ± SD (%): end of one-week 2% AraC infusion (0 day); for lacZ+;PSA-NCAM+/total lacZ+ ± SD (%): AraC 0 day; for Dlx2 expression: after AraC treatment.

Text: For AraC treatment, two days after TM treatment, a mini-osmotic pump (model 1007D, Duret) was implanted to infuse either saline or 2% AraC (Sigma) for one week as described (Doetsch, F. et al. (1999), Proc Natl Acad Sci USA 96: 11619-11624). Brains of mice that were sacrificed at the end of AraC or control treatment were designated as day 0 samples. For long-term survival experiments, the pump was removed one week after implantation and mice were later sacrificed at the indicated survival time. The second application of AraC was done as the first AraC treatment.
Mice were perfused (4% paraformaldehyde (PFA)), processed for frozen sections, and stained with X-gal as described in the Joyner lab website (http://saturn.med.nyu.edu/research/dg/joynerlab). For immunofluorescent staining, dissected brains were fixed in 4% PFA overnight at 4° C. and 50 μm vibratome (Leica) sections were obtained. Free-floating sections were stained overnight at 4° C. with goat anti-galactosidase (1:500; Biogenesis) and one of the following antibodies: mouse anti-GFAP (1:500), anti-PSA-NCAM (1:300), anti-NeuN (1:200; Chemicon), anti-CCI (1:20, Calbiochem), anti-CNPase (1:150), anti-MBP (1:200, SMI), guinea pig anti-Olig2 (1:20,000; from B. Novitch), rat anti-NG2/AN2 (1:10; from C. Klein), and rabbit anti-GABA (1:500, Sigma). Secondary antibodies for double labeling were donkey anti-species conjugated with Alexa 488, Alexa 555 (1:500; Molecular Probes), or FITC (1:200; Jackson ImmunoResearch). Fluorescent images were captured in 1.5-μm optical sections using a confocal laser-scanning microscope (LSM 510, Zeiss) and processed with Adobe Photoshop. Orthogonal analysis was performed to confirm co-expression of two markers. Cells co-expressing lacZ and one of the various markers were counted and divided by total number of lacZ expressing cells in the indicated region. At least three sections through the SVZ and DG were analyzed from one mouse. Data from at least three mice were pooled together to determine the average and standard deviation (SD). T-test was performed to calculate the p-value and determine whether the results between two time points were different with statistical significance.
Two days after TM treatment, AraC was infused for one week into the brain of Gli1-CreER^T2; R26R mice using a mini-osmotic pump.

On to `Nc1ccn([C@@H]2O[C@H](CO)[C@@H](O)[C@@H]2O)c(=O)n1` [AraC, cytosine arabinoside], for which the “lacZ+;GFAP+/total lacZ+ ± SD (%)” value reads like this: (DG (SGZ)) 93.7±4.7%; (ventral SVZ) 92.2±1.0%. For the same compound, the “lacZ+;PSA-NCAM+/total lacZ+ ± SD (%)” value was determined as 2.1 ± 3.6% (DG) and 1.6 ± 2.9% (ventral SVZ). Moreover, the Dlx2 expression result runs as follows: (RMS) “greatly diminished”; (SVZ) “abolished”. Also, where the note is “end of AraC treatment (day 0), n=3”, the “neuroblasts (PSA-NCAM immunoreactivity) in whole mounts of the lateral wall of the lateral ventricles” value was “almost completely depleted”. Moreover, the “labeled cells in the SVZ and DG versus control mice” value (within one week after AraC removal, n=5 vs control n=4) is on record as “expanded more than control mice”.
